The target of experiment [1] is T1, PPIG (Homo sapiens, UniProt Q13427).
T1 construct: His6 (thrombin cleavage site) (N); made in house; host or cells: E. coli BL21 Gold DE3 (general method; the K125A/E126A crystallization mutant was grown in BL21 DE3 Codon Plus RIL)
Briefly: NMR-based tetrapeptide activity assay (1H/1H TOCSY). The experiment is classed as biochemical. As to conditions: collapse of substrate cis/trans peaks; at least one of suc-AAPF-pNA, suc-AFPF-pNA, suc-AGPF-pNA; 25°C. From the text:
(§1) A two-dimensional NMR experiment (1H/1H TOCSY) described previously,[40], the only in vitro protease-free method available to probe for both substrate binding and catalytic activity of cyclophilins, was used to assess the commercially available tetrapeptides of sequence AAPF, AFPF, and AGPF [34]. […] A number of articles have documented the drawbacks of the protease-coupled assay,[42]–[44], an obvious example being that the addition of protease to the reaction mixture in the chymotrypsin-coupled assay requires additional testing to ensure that the enzymes and substrates being screened are not proteolytic targets. […] We detected binding and turnover for at least one of the tetrapeptide substrates tested for PPIA, PPIB, PPIC, PPID, PPIE, PPIF, PPIG, PPIH, PPIL1, PPWD1, and NKTR (Table 1; see Figure S1 for representative data showing binding and activity). This correlated well with previously determined activities,[20],[21],[28],[30],[45],[46], and established activity measurements for PPIF, PPIG, and NKTR.
(§2) Most protein samples aimed at assessing binding and/or catalysis of tetrapeptide substrates were diluted to 500 µL with 10% D2O and placed into a Shigemi microcell (Allison Park, PA, USA). Typical samples contained 0.075 mM protein and 2 mM of suc-AAPF-pNA, suc-AFPF-pNA, or suc-AGPF-pNA (Bachem), along with 100 mM phosphate buffer pH 7 and 100 mM NaCl. Spectra were collected at 25°C on a Varian 600 or 900 MHz spectrometer (Palo Alto, CA, USA). Spectra were acquired using standard Varian BioPack sequences, processed using NMRpipe software and visualized using CCPN software. For samples used to assess binding of PPIA to peptides DEGPF, DFGPF, DYGPF, YGGPF, or VRGPF, samples were as above except protein concentration was 0.3 mM and spectra were collected at 10°C.

The next experiment concerns the target T2, PPID (Homo sapiens, UniProt Q08752).
T2 construct: His6 (thrombin cleavage site) (N); made in house; host or cells: E. coli BL21 Gold DE3
The experiment is described as above. The experiment is classed as biochemical. The settings on record: collapse of substrate cis/trans peaks; at least one of suc-AAPF-pNA, suc-AFPF-pNA, suc-AGPF-pNA; 25°C.
Text: as §1, §2

The target in the next experiment is T3, PPIL2 (Homo sapiens, UniProt Q13356).
T3 construct: His6 with thrombin cleavage site (N); made in house; host or cells: E. coli BL21 Gold DE3
T3 sequence (Q13356 278-433 limits assumed): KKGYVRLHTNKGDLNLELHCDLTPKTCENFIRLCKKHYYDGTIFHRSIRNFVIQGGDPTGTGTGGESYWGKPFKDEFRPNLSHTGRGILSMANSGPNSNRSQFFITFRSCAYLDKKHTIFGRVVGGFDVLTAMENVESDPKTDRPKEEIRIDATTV
Described as above. In kind it is biochemical.
Text: as §1, §2

Another experiment addresses T4, SDCCAG-10 (Homo sapiens, UniProt Q6UX04).
T4 construct: His6 with thrombin cleavage site (N); made in house; host or cells: E. coli BL21 Gold DE3
T4 sequence (Q6UX04 11-166 limits assumed): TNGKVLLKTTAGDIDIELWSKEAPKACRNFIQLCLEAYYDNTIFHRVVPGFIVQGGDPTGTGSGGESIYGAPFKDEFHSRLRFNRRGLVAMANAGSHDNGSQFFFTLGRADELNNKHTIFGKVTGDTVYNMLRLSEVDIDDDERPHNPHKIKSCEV
The description is as above. The experiment is classed as biochemical.
Text: as §1, §2

For another experiment, the target named is T5, PPIL1 (Homo sapiens, UniProt Q9Y3C6).
T5 construct: His6 (thrombin cleavage site) (N); made in house; host or cells: E. coli BL21 Gold DE3
T5 sequence (Q9Y3C6 10-164 limits assumed): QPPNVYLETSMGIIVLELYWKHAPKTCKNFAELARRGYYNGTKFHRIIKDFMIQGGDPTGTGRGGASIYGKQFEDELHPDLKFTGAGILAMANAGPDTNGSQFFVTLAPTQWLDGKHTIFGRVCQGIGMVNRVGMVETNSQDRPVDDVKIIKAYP
The experiment is described as follows: Thermal stabilization assay (StarGazer static light scattering). In kind it is binding. As to conditions: protein approximately 20 µM, compound 50 µM; shift vs basal Tagg. From the text:
(§3) In order to elucidate the function of residues in the extended active site of the PPIase domain of the human cyclophilins, we probed the binding and catalytic function of these domains against either substrate or small-molecule inhibitors (see Figure 1 and Datapack S1 for graphical and tabular depictions of the active site). Three assays were utilized to explore these functions. […] This assay has been shown in several studies to be a reliable readout of small molecule binding for kinase and other enzyme families,[38]. […] Because of the inherent thermal stability characteristics of PPID and RanBP2, this technique was unable to distinguish between apo and cyclosporin-bound forms of those domains.
(§4) All protein samples used for static light scattering (StarGazer) trials were assessed for purity utilizing SDS-PAGE and verified for mass accuracy using mass spectrometry. Methods were generally as described as in [38]; protein at approximately 20 µM concentration was heated from room temperature to 80°C in the presence or absence of small molecules, including cyclosporins A, C, D, or H (LKT Labs, MN, USA). The […] were originally prepared in 100% DMSO at 50–100 mM concentration, then diluted to 50 µM for screening, thereby ensuring the final DMSO concentration was less than 5% during the experiment. […] Each compound was tested at least twice.

Experiment [2] has as its target T1, PPIG. Described as above. The experiment is classed as binding. As to conditions: protein approximately 20 µM, compound 50 µM; shift vs basal Tagg.
Text: as §3, §4

Another experiment has as its target T6, PPIB (Homo sapiens, UniProt P23284).
T6 construct: His6 (thrombin cleavage site) (N); made in house; host or cells: E. coli BL21 Gold DE3
The description is as above. The settings on record: protein approximately 20 µM, compound 50 µM; shift vs basal Tagg. In kind it is binding.
Text: as §3, §4

A further experiment deals with T7, PPIH (Homo sapiens, UniProt O43447).
T7 construct: His6 (thrombin cleavage site) (N); made in house; host or cells: E. coli BL21 Gold DE3
The experiment is described as above. The experiment is classed as binding. As to conditions: protein approximately 20 µM, compound 50 µM; shift vs basal Tagg.
Text: as §3, §4

In the next experiment the target is T8, PPIC (Homo sapiens, UniProt P45877).
T8 construct: His6 (thrombin cleavage site) (N); made in house; host or cells: E. coli BL21 Gold DE3
Described as above. The experiment is classed as binding. As to conditions: protein approximately 20 µM, compound 50 µM; shift vs basal Tagg.
Text: as §3, §4

The target in a further experiment is T9, PPIE (Homo sapiens, UniProt Q9UNP9).
T9 construct: His6 (thrombin cleavage site) (N); made in house; host or cells: E. coli BL21 Gold DE3
The description is as above. In kind it is binding. As to conditions: protein approximately 20 µM, compound 50 µM; shift vs basal Tagg.
Text: as §3, §4

For a further experiment, the target named is T10, PPIF (Homo sapiens, UniProt P30405).
T10 construct: His6 (thrombin cleavage site) (N); made in house; host or cells: E. coli BL21 Gold DE3
The experiment is described as above. The experiment is classed as binding. As to conditions: protein approximately 20 µM, compound 50 µM; shift vs basal Tagg.
Text: as §3, §4

The next experiment has as its target T11, PPIA (Homo sapiens, UniProt P62937).
T11 construct: His6 (thrombin cleavage site) (N); made in house; host or cells: E. coli BL21 Gold DE3
The experiment is described as above. In kind it is binding. As to conditions: protein approximately 20 µM, compound 50 µM; shift vs basal Tagg.
Text: as §3, §4

The target in the next experiment is T12, NKTR (Homo sapiens, UniProt P30414).
T12 construct: His6 with thrombin cleavage site (N); made in house; host or cells: E. coli BL21 Gold DE3
T12 sequence (P30414 10-175 limits assumed): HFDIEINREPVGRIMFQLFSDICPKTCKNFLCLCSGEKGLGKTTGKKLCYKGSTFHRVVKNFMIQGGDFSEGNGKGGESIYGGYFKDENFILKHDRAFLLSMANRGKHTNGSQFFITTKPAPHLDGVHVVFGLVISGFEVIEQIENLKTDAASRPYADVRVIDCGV
The experiment is described as above. In kind it is binding. The settings on record: protein approximately 20 µM, compound 50 µM; shift vs basal Tagg.
Text: as §3, §4

A further experiment concerns the target T13, PPWD1 (Homo sapiens, UniProt Q96BP3).
T13 construct: His6 with thrombin cleavage site (N); made in house; host or cells: E. coli BL21 Gold DE3
T13 sequence (Q96BP3 490-645 limits assumed): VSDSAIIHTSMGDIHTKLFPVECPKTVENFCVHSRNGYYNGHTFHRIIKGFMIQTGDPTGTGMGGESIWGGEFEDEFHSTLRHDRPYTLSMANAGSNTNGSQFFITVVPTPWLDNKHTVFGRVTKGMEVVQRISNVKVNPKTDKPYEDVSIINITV
The experiment is described as above. The settings on record: protein approximately 20 µM, compound 50 µM; shift vs basal Tagg. In kind it is binding.
Text: as §3, §4

Setting [3] is: collapse of substrate cis/trans peaks, suc-AAPF-pNA, suc-AFPF-pNA, suc-AGPF-pNA, 25°C.

T1 sequence (Q13427 11-176 limits assumed): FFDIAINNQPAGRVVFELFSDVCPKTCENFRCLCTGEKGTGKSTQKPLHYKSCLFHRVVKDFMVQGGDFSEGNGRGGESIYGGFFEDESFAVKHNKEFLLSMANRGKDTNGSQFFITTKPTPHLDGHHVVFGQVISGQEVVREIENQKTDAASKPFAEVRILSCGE
T8 sequence (P45877 41-198 limits assumed): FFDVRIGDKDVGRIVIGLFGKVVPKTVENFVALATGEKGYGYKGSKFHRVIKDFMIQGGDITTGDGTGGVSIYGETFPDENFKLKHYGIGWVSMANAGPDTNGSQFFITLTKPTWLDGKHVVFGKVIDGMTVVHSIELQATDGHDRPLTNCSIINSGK
T11 sequence (P62937 7-163 limits assumed): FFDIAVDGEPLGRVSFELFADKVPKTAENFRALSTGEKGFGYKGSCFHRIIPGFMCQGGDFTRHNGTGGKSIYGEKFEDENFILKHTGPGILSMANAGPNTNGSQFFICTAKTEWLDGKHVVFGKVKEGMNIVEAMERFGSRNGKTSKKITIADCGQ
T6 sequence (P23284 47-204 limits assumed): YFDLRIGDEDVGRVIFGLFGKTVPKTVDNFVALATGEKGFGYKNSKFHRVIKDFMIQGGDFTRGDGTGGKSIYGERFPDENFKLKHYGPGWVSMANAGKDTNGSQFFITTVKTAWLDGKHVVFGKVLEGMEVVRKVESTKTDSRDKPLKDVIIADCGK
T2 sequence (Q08752 19-183 limits assumed): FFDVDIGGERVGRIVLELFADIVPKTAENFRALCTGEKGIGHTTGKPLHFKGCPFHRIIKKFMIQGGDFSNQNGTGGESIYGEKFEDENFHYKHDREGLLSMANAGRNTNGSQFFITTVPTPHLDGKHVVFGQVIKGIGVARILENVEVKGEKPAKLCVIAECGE
T9 sequence (Q9UNP9 143-299 limits assumed): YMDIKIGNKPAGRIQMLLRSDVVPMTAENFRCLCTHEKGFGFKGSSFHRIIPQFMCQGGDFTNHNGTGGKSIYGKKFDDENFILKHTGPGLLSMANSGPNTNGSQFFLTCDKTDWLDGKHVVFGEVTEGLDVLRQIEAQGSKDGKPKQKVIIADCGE
T10 sequence (P30405 49-205 limits assumed): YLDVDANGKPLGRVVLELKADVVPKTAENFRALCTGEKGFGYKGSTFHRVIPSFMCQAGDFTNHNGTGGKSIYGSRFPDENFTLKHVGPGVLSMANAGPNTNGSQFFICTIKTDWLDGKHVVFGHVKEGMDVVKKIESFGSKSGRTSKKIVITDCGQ
T7 sequence (O43447 14-176 limits assumed): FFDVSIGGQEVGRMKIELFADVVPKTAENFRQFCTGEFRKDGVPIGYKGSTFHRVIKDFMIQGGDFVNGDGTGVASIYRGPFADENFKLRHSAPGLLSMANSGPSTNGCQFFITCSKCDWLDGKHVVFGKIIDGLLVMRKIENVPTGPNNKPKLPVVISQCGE

Take suc-AGPF-pNA: the “Tetrapeptide Activity” value on PPIG [1] is on record as “active isomerases”; on PPID, “active isomerases”; on PPIL2 (setting [3]), “not active”; on SDCCAG-10 (setting [3]) it was “not active”. Also, the “Binding of substrate (peak centers shift without coalescence)” value at PPIL2 (Figure S1A) was “binding, but not catalysis”; at SDCCAG-10 (Figure S1A), “binding, but not catalysis”.
Regarding `C/C=C/C[C@@H](C)[C@@H](O)[C@H]1C(=O)N[C@@H]([C@@H](C)O)C(=O)N(C)CC(=O)N(C)[C@@H](CC(C)C)C(=O)N[C@@H](C(C)C)C(=O)N(C)[C@@H](CC(C)C)C(=O)N[C@@H](C)C(=O)N[C@H](C)C(=O)N(C)[C@@H](CC(C)C)C(=O)N(C)[C@@H](CC(C)C)C(=O)N(C)[C@@H](C(C)C)C(=O)N1C` [CsC, cyclosporin C], the “Thermal Stability ΔTagg, CsC” value at PPIL1 came out at 1.7 °C; at PPIG [2], 2 °C; at PPIB, 3.4 °C; on PPIH, 7.3 °C; on PPIC, 7.0 °C; at PPIE, 6.8 °C. Further, the “Thermal Stability ΔTagg, CsC” value is 10.7 °C at PPIF, 1.9 °C on PPIA, 3.0 °C on NKTR and 5.2 °C at PPWD1.

Source of the values: publication PMC2911226, “Structural and Biochemical Characterization of the Human Cyclophilin Family of Peptidyl-Prolyl Isomerases” (PLoS Biology, 2010).
